“Also recorded” adds a separate entry of the source.
Key:
DIO mice = assay: Diet-induced obesity (DIO) mice; format: in vivo
Description: As described, supra, the C57BL/6 mouse strain is reported to be susceptible to hyperlipidemia-induced atherosclerotic plaque formation, and when these mice are fed a high-fat diet, they develop diet-induced obesity (DIO). Accordingly, the DIO mouse model is useful for the investigation of obesity and development of agents designed to treat these conditions. In one embodiment of the present invention, oligomeric compounds targeting miRNAs were tested in the DIO model. Normal C57/BL6 male mice were fed a high fat diet (40% fat, 41% carbohydrate, 18% protein) for 12 weeks before the study began. DIO mice were then randomized by weight and insulin values. Initial body fat composition was determined by Dual X-ray Absorptiometry (DEXA) Scan. DIO mice were then subcutaneously injected with oligomeric compounds of the invention at a dose of 25 mg/kg, twice weekly. DIO mice were treated with oligomeric compounds ISIS Numbers 327901 and 340927 targeting mir-143, ISIS Numbers 327892 and 340926 targeting mir-131/mir-9, ISIS Numbers 327878 and ISIS Number 345349 targeting mir-203, and ISIS Numbers 327889 and 340925, targeting mir-23b. […] DEXA scans were also performed at weeks 0, 3 and 5 after treatment with the oligomeric compounds to assess the fat mass to lean mass ratio. The effects of target inhibition on levels of plasma glucose and insulin, liver transaminases, cholesterol and triglycerides, were also assessed weekly by tail bleed, and after the treatment period, mice were sacrificed and liver and kidney heart, as well as white adipose tissue (WAT) tissues collected. The mRNA expression levels of the Glut4, aP2, HSL and PPARγ marker genes are also assessed. […] Furthermore, some improvement in body composition (a reduction in body weight and fat mass) was observed.

mir-23b miRNA [1] = assay: Northern blot of mir-23b in kidney of ob/ob mice; format: in vivo, mouse; details: twice weekly at 25 mg/kg, saline = 100%
Description: In addition, Northern blot analyses were performed to quantitate the expression of mir-23b in kidney samples of ob/ob mice treated with oligomeric compounds of the present invention. To detect the mir-23b target, a target-specific DNA oligonucleotide probe with the sequence […] (SEQ ID NO: 307) was synthesized by IDT (Coralville, Iowa). The oligo probes were 5′ end-labeled with T4 polynucleotide kinase with (γ-^32P) ATP (Promega). The mir-23b specific DNA oligonucleotide probe was used to detect expression levels of the mir-23b miRNA in ob/ob mice treated (twice weekly at 25 mg/kg) with ISIS Numbers 327889, the uniform 2′-MOE oligomeric compound, or ISIS Number 340925, the 5-10-8 gapmer compound, both targeted to mir-23b, versus saline treated animals or animals treated with a control oligomeric compound, ISIS Number 116847 ([…]; SEQ ID NO: 844), a uniform 5-10-52′-MOE gapmer targeting an unrelated gene, PTEN. Expression levels were normalized against the U6 RNA and the expression levels of saline treated animals were set at 100%. […] In kidney samples from mice treated with the gapmer oligomeric compound targeting mir-23b, ISIS Number 340925, a 41% reduction in in vivo expression levels of the mir-23b miRNA was observed.

[2] = system: preadipocytes / differentiating adipocytes; assay: Adipocyte differentiation assay, markers taken together; format: cell-based, human; details: preadipocytes, 250 nM, day nine post-transfection, relative to ISIS-29848
mir-23b miRNA [3] = assay: pGL3-mir-23b sensor luciferase assay in HeLa cells; format: cell-based, human; details: HeLa, 1.3-, 5- or 20 nM
Text: In order to assess the ability of miRNAs to bind predicted miRNA binding sites and regulate the expression of the luciferase reporter, in some embodiments, expression systems based on the pGL3-Control (Promega Corp., Madison Wis.) reporter vector and comprising either a mir-15a, mir-21, or a mir-23b miRNA binding site were developed and used in transient transfections of HeLa cells to determine whether the endogenous mir-15a, mir-21, or mir-23b miRNAs, respectively, could repress luciferase reporter gene expression.
The pGL3-mir-23b sensor plasmid was created by cloning the sequence ([…]; SEQ ID NO: 307), representing a sequence complementary to the mir-23b miRNA, into the Xba site of the pGL3-Control plasmid, placing the potential miRNA-binding site in the 3′UTR of the luciferase reporter. This reporter plasmid was used to transfect HeLa cells and it was observed that the endogenous mir-23b miRNA was able to inhibit luciferase expression from the pGL3-mir-23b sensor plasmid. Thus, to further evaluate the ability of the mir-23b miRNA to bind this target site encoded by the pGL3-mir-23b sensor plasmid, and to assess the ability of oligomeric compounds to interfere with mir-23b-mediated silencing, pGL3-mir-23b sensor-expressing HeLa cells were treated with varying concentrations (1.3-, 5- or 20 nM) of the following oligomeric compounds: ISIS Number 327889 (SEQ ID NO: 307), a phosphorothioate uniform 2′-MOE oligomeric compound, and ISIS Number 340925 (SEQ ID NO: 307), a 2′-MOE 5-10-8 gapmer oligomeric compound, both targeting mir-23b. The uniform 2′-MOE phosphorothioate oligomeric compound ISIS Number 327924 (SEQ ID NO: 342) targeting an unrelated miRNA (mir-129-2) was used as a negative control. The data are the average of three trials, and are presented in Table 43 as relative luciferase activity (normalized to pRL-CMV luciferase plasmid only, not treated with oligomeric compound).

ob/ob mice = assay: ob/ob mice: plasma parameters, food consumption, marker gene mRNA; format: in vivo, mouse; details: six week old ob/ob mice
Text: Leptin is a hormone produced by fat cells that regulates appetite. Deficiencies in this hormone in both humans and non-human animals leads to obesity. ob/ob mice have a mutation in the leptin gene which results in obesity and hyperglycemia. As such, these mice are a useful model for the investigation of obesity and diabetes and treatments designed to treat these conditions. ob/ob mice have higher circulating levels of insulin and are less hyperglycemic than db/db mice, which harbor a mutation in the leptin receptor. In accordance with the present invention, the oligomeric compounds of the invention are tested in the ob/ob model of obesity and diabetes.
Seven-week old male C57B1/6J-Lep ob/ob mice (Jackson Laboratory, Bar Harbor, Me.) are fed a diet with a fat content of 10-15% and are subcutaneously injected with the oligomeric compounds of the invention or a control compound at a dose of 25 mg/kg two times per week for 4 weeks. Saline-injected animals, leptin wildtype littermates (i.e. lean littermates) and ob/ob mice fed a standard rodent diet serve as controls. After the treatment period, mice are sacrificed and target levels are evaluated in liver, brown adipose tissue (BAT) and white adipose tissue (WAT). RNA isolation and target RNA expression level quantitation are performed as described by other examples herein.
To assess the physiological effects resulting from modulation of target, the ob/ob mice are evaluated at the end of the treatment period for serum lipids, serum free fatty acids, serum cholesterol (CHOL), liver triglycerides, fat tissue triglycerides and liver enzyme levels. Hepatic steatosis, or clearing of lipids from the liver, is assessed by measuring the liver triglyceride content. Hepatic steatosis is assessed by routine histological analysis of frozen liver tissue sections stained with oil red O stain, which is commonly used to visualize lipid deposits, and counterstained with hematoxylin and eosin, to visualize nuclei and cytoplasm, respectively.
The effects of target modulation on glucose and insulin metabolism are evaluated in the ob/ob mice treated with the oligomeric compounds of the invention. Plasma glucose is measured at the start of the treatment and after 2 weeks and 4 weeks of treatment. Plasma insulin is similarly measured at the beginning of the treatment, and following at 2 weeks and at 4 weeks of treatment. Glucose and insulin tolerance tests are also administered in fed and fasted mice. Mice receive intraperitoneal injections of either glucose or insulin, and the blood glucose and insulin levels are measured before the insulin or glucose challenge and at 15, 20 or 30 minute intervals for up to 3 hours.
The ob/ob mice that receive treatment are evaluated at the end of the treatment period for the effects of target modulation on the expression of genes that participate in lipid metabolism, cholesterol biosynthesis, fatty acid oxidation, fatty acid storage, gluconeogenesis and glucose metabolism. These genes include, but are not limited to, HMG-CoA reductase, acetyl-CoA carboxylase 1 and acetyl-CoA carboxylase 2, camitine palmitoyltransferase I and glycogen phosphorylase, glucose-6-phosphatase and phosphoenolpyruvate carboxykinase 1, lipoprotein lipase and hormone sensitive lipase. mRNA levels in liver and white and brown adipose tissue are quantitated by real-time PCR as described in other examples herein, employing primer/probe sets that are generated using published sequences of each gene of interest.
As described herein, leptin-deficient (ob/ob) mice, leptin receptor-deficient (db/db) mice and diet-induced obesity (DIO) mice are used to model obesity and diabetes. In accordance with the present invention, oligomeric compounds targeting mir-143, mir-131 (also known as mir-9) and mir-203 were tested in the ob/ob and db/db models. […]

[4] = 25 mg/kg twice weekly for four weeks

“GTGGTAATCCCTGGCAATGTGAT [ISIS 327889] (chemistry not given here) [uniform 2′-MOE PS; targets mir-23b]” was tested, and the “liver toxicity (plasma transaminase levels, weekly)” value (DIO mice; 25 mg/kg s.c. twice weekly) was “did not appear to cause liver toxicity”, the “decrease in in vivo expression levels of the mir-23b miRNA” value (mir-23b miRNA [1]) was ~64% and the “expression levels of markers of adipocyte differentiation (TG, leptin, aP2, HSL, Glut4, PPARγ)” value [2] was “significantly reduce the expression levels of 5 of 6 markers of adipocyte differentiation; also recorded: reduce the expression of several hallmark genes of adipocyte differentiation”. For the same sequence, the “expression of the luciferase reporter, pGL3-mir-23b sensor” value (mir-23b miRNA [3]) was “de-repressed the expression of the luciferase reporter”.

With “GTGGTAATCCCTGGCAATGTGAT [ISIS 340925] (chemistry not given here) [2′-MOE 5-10-8 gapmer; targets mir-23b]” the “increase in the liver transaminase AST” value (DIO mice; 25 mg/kg s.c. twice weekly) was “approximately 2 fold”, the insulin levels (DIO mice; two and four week time points, vs saline) was “effective at reducing insulin levels” and the “decrease in in vivo expression levels of the mir-23b miRNA” value (mir-23b miRNA [1]) was 41%. For the same sequence, the Triglycerides (ob/ob mice; [4]) was “decrease in triglycerides in the fourth week”, the “plasma glucose levels in the fed state” value (ob/ob mice; [4]) was “reductions in plasma glucose levels in the fed state at weeks two and four” and the plasma transaminases (ob/ob mice; weeks two or four) was “did not exhibit an increase in plasma transaminases”.

Source: US8178506B2, “Oligomeric compounds and compositions for use in modulation of small non-coding RNAs” (Regulus Therapeutics Inc., priority 2003, dated 2012)
